Test results from article PMC8400806, “Discovery of Amide-Functionalized Benzimidazolium Salts as Potent α-Glucosidase Inhibitors” (Molecules, 2021).
Entries after “also recorded” stand apart in the source; their conditions may differ. Counter-ions that a name gives are not always drawn. Like-named read-outs stand apart in the source and are kept apart here.

Legend:
α-glucosidase enzyme = molecular target: T1, α-glucosidase enzyme (Saccharomyces cerevisiae, UniProt P53341); assay: biochemical; type: biochemical; conditions: for α-glucosidase inhibitory activity, in words: verbal rating in the SAR discussion
T1 construct: purchased Sigma-Aldrich, Munich, Germany
Procedure: The solution of the α-glucosidase enzyme (obtained from Saccharomyces cerevisiae (Sigma-Aldrich, Munich, Germany)) was prepared in phosphate buffer (pH 6.8, 100 mM). The synthesized compounds were dissolved in dimethyl sulfoxide (DMSO). […] Afterwards, 40 μL of 5 mM p-nitrophenyl-α-D-glucopyranoside (Sigma-Aldrich, Munich, Germany) was poured into each well and further incubated for an additional half-hour. […] Acarbose (Sigma-Aldrich, Munich, Germany) and DMSO were used as reference inhibitors and negative control, respectively. The tests were conducted in triplicate and percent inhibitions were calculated using the following formula: % Inhibition = [(A control − A sample)/A control] × 100 where ‘A’ stands for absorbance.
The IC50 values of the synthesized compounds and acarbose were also determined.

T1 sequence (P53341 whole entry): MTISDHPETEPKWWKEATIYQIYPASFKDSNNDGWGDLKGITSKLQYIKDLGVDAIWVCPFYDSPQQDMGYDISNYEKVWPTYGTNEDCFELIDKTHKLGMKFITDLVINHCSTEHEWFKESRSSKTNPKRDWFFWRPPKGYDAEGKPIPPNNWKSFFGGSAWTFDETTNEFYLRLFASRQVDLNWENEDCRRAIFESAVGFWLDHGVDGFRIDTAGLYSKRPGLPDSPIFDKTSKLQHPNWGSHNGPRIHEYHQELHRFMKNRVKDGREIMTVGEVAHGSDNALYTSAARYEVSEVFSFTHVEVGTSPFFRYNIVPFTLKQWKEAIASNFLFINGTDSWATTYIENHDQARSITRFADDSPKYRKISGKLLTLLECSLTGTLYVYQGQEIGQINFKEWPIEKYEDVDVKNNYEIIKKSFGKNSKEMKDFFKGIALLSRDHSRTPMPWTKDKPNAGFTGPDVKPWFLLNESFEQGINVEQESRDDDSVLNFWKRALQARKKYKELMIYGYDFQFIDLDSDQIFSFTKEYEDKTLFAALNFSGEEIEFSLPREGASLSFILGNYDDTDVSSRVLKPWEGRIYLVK

| SMILES | melting point | IC50 (α-glucosidase enzyme) | IC50 (α-glucosidase enzyme; S. cerevisiae enzyme 0.5 U/mL, phosphate buffer pH 6.8, 37 °C, triplicate, read-out: IC50 α-glucosidase inhibition) | α-glucosidase inhibitory activity, in words (α-glucosidase enzyme) | α-glucosidase inhibitory potential, fold higher than the standard drug acarbose (α-glucosidase enzyme; from IC50 values versus acarbose) |
| --- | --- | --- | --- | --- | --- |
| Cc1n(Cc2ccccc2)c2ccccc2[n+]1CC(=O)Nc1ccccc1Br (as salt: bromide) [Compound 10c, 1-Benzyl-3-[2-{(2-bromophenyl)amino)}-2-oxoethyl]-2-methyl-1H-benzo[d]imidazol-3-ium bromide] | 252 °C |  |  |  |  |
| Cc1n(Cc2ccccc2)c2ccccc2[n+]1CC(=O)Nc1ccc([N+](=O)[O-])cc1 (as salt: bromide) [Compound 10h, 1-Benzyl-2-methyl-3-[2-{(4-nitrophenyl)amino)}-2-oxoethyl]-1H-benzo[d]imidazol-3-ium bromide] | 222 to 224 °C |  |  |  |  |
| O=C(C[n+]1cn(Cc2ccccc2)c2ccccc21)Nc1cccc(Cl)c1.[Br-] [Compound 9a, 1-Benzyl-3-[2-{(3-chlorophenyl)amino}-2-oxoethyl]-1H-benzo[d]imidazol-3-ium bromide] | 205 to 207 °C | 150.7 ± 0.045 µM |  |  |  |
| O=C(C[n+]1cn(Cc2ccccc2)c2ccccc21)Nc1ccc(Cl)cc1.[Br-] [Compound 9b, 1-Benzyl-3-[2-{(4-chlorophenyl)amino}-2-oxoethyl]-1H-benzo[d]imidazol-3-ium bromide] | 197 to 198 °C | 169.16 ± 0.023 µM |  |  |  |
| O=C(C[n+]1cn(Cc2ccccc2)c2ccccc21)Nc1ccccc1Br.[Br-] [Compound 9c, 1-Benzyl-3-[2-{(2-bromophenyl)amino}-2-oxoethyl]-1H-benzo[d]imidazol-3-ium bromide] | 192 to 194 °C | 70.01 ± 0.037 µM |  |  |  |
| O=C(C[n+]1cn(Cc2ccccc2)c2ccccc21)Nc1cccc(Br)c1.[Br-] [Compound 9d, 1-Benzyl-3-[2-{(3-bromophenyl)amino}-2-oxoethyl]-1H-benzo[d]imidazol-3-ium bromide] | 176 to 178 °C | 171.11 ± 0.089 µM |  |  |  |
| O=C(C[n+]1cn(Cc2ccccc2)c2ccccc21)Nc1ccc(Br)cc1 [Compound 9e, 1-Benzyl-3-[2-{(4-bromophenyl)amino)}-2-oxoethyl]-1H-benzo[d]imidazol-3-ium bromide] |  |  | 198 ± 0.103 µM |  |  |
| O=C(C[n+]1cn(Cc2ccccc2)c2ccccc21)Nc1ccccc1[N+](=O)[O-].[Br-] [Compound 9f, 1-Benzyl-3-[2-{(2-nitrophenyl)amino}-2-oxoethyl]-1H-benzo[d]imidazol-3-ium bromide] | 142 to 143 °C | 241 ± 0.027 µM |  |  |  |
| O=C(C[n+]1cn(Cc2ccccc2)c2ccccc21)Nc1cccc([N+](=O)[O-])c1.[Br-] [Compound 9g, 1-Benzyl-3-[2-{(3-nitrophenyl)amino}-2-oxoethyl]-1H-benzo[d]imidazol-3-ium bromide] | 162 to 163 °C | 215.73 ± 0.112 µM |  |  |  |
| O=C(C[n+]1cn(Cc2ccccc2)c2ccccc21)Nc1ccc([N+](=O)[O-])cc1.[Br-] [Compound 9h, 1-Benzyl-3-[2{(4-nitrophenyl)amino}-2-oxoethyl]-1H-benzo[d]imidazol-3-ium bromide] | 152 to 153 °C |  |  |  |  |
| Cc1ccccc1NC(=O)C[n+]1cn(Cc2ccccc2)c2ccccc21.[Br-] [Compound 9i, 1-Benzyl-3-{2-oxo-2-(o-tolylamino)ethyl}-1H-benzo[d]imidazol-3-ium bromide] | 162 to 163 °C | 259.86 ± 0.043 µM |  |  |  |
| Cc1cccc(NC(=O)C[n+]2cn(Cc3ccccc3)c3ccccc32)c1.[Br-] [Compound 9j, 1-Benzyl-3-{2-oxo-2-(m-tolylamino)ethyl}-1H-benzo[d]imidazol-3-ium bromide] | 132 to 134 °C | 200.14 ± 0.039 µM |  |  |  |
| Cc1ccc(NC(=O)C[n+]2cn(Cc3ccccc3)c3ccccc32)cc1.[Br-] [Compound 9k, 1-Benzyl-3-{2-oxo-2-(p-tolylamino)ethyl}-1H-benzo[d]imidazol-3-ium bromide] | 148 to 149 °C | 201.13 ± 0.105 µM |  |  |  |
| COc1ccccc1NC(=O)C[n+]1cn(Cc2ccccc2)c2ccccc21.[Br-] [Compound 9l, 1-Benzyl-3-[2-{(2-methoxyphenyl)amino}-2-oxoethyl]-1H-benzo[d]imidazol-3-ium bromide] | 188 to 189 °C | 74.94 ± 0.028 µM |  |  |  |
| COc1ccc(NC(=O)C[n+]2cn(Cc3ccccc3)c3ccccc32)cc1.[Br-] [Compound 9m, 1-Benzyl-3-[2-{(4-methoxyphenyl)amino}-2-oxoethyl]-1H-benzo[d]imidazol-3-ium bromide] | 171 to 173 °C | 279.28 ± 0.03 µM |  | lowest α-glucosidase inhibitory results in their respective series |  |
| Cc1n(Cc2ccccc2)c2ccccc2[n+]1CC(=O)Nc1ccccc1Br [Compound 10c, 1-Benzyl-3-[2-{(2-bromophenyl)amino)}-2-oxoethyl]-2-methyl-1H-benzo[d]imidazol-3-ium bromide] |  | 46 ± 0.106 µM |  | higher activity than acarbose |  |
| Cc1n(Cc2ccccc2)c2ccccc2[n+]1CC(=O)Nc1cccc(Br)c1.[Br-] [Compound 10d, 1-Benzyl-3-[2-{(3-bromophenyl)amino}-2-oxoethyl]-2-methyl-1H-benzo[d]imidazol-3-ium bromide] | 242 °C | 14 ± 0.013 µM |  | higher activity than acarbose | 4 fold |
| Cc1n(Cc2ccccc2)c2ccccc2[n+]1CC(=O)Nc1ccc(Br)cc1.[Br-] [Compound 10e, 1-Benzyl-3-[2-{(4-bromophenyl)amino}-2-oxoethyl]-2-methyl-1H-benzo[d]imidazol-3-ium bromide] | 212 °C | 30 ± 0.049 µM |  | higher activity than acarbose |  |
| Cc1n(Cc2ccccc2)c2ccccc2[n+]1CC(=O)Nc1ccccc1[N+](=O)[O-].[Br-] [Compound 10f, 1-Benzyl-2-methyl-3-[2-{(2-nitrophenyl)amino}-2-oxoethyl]-1H-benzo[d]imidazol-3-ium bromide] |  | 60 ± 0.025 µM |  | considerable decline in activity |  |
| Cc1n(Cc2ccccc2)c2ccccc2[n+]1CC(=O)Nc1cccc([N+](=O)[O-])c1.[Br-] [Compound 10g, 1-Benzyl-2-methyl-3-[2-{(3-nitrophenyl)amino}-2-oxoethyl]-1H-benzo[d]imidazol-3-ium bromide] | 180 to 182 °C | 19 ± 0.086 µM |  | promising α-glucosidase inhibitory results |  |
| Cc1n(Cc2ccccc2)c2ccccc2[n+]1CC(=O)Nc1ccc([N+](=O)[O-])cc1 [Compound 10h, 1-Benzyl-2-methyl-3-[2-{(4-nitrophenyl)amino)}-2-oxoethyl]-1H-benzo[d]imidazol-3-ium bromide] |  | 17 ± 0.067 µM |  | promising α-glucosidase inhibitory results |  |
| Cc1ccccc1NC(=O)C[n+]1c(C)n(Cc2ccccc2)c2ccccc21.[Br-] [Compound 10i, 1-Benzyl-2-methyl-3-{2-oxo-2-(o-tolylamino)ethyl}-1H-benzo[d]imidazol-3-ium bromide] | 168 to 170 °C | 100 ± 0.048 µM |  | poor inhibitors; also recorded: lowest α-glucosidase inhibitory results in their respective series |  |
| Cc1cccc(NC(=O)C[n+]2c(C)n(Cc3ccccc3)c3ccccc32)c1.[Br-] [Compound 10j, 1-Benzyl-2-methyl-3-{2-oxo-2-(m-tolylamino)ethyl}-1H-benzo[d]imidazol-3-ium bromide] | 192 to 194 °C | 60 ± 0.041 µM |  | poor inhibitors |  |
| Cc1ccc(NC(=O)C[n+]2c(C)n(Cc3ccccc3)c3ccccc32)cc1.[Br-] [Compound 10k, 1-Benzyl-2-methyl-3-{2-oxo-2-(p-tolylamino)ethyl}-1H-benzo[d]imidazol-3-ium bromide] | 220 to 221 °C | 32.27 ± 0.05 µM |  | moderately active |  |

More lines, main results first:

| melting point | IC50 (α-glucosidase enzyme) | SMILES | IC50 (α-glucosidase enzyme; S. cerevisiae enzyme 0.5 U/mL, phosphate buffer pH 6.8, 37 °C, triplicate, read-out: IC50 α-glucosidase inhibition) | α-glucosidase inhibitory activity, in words (α-glucosidase enzyme) | α-glucosidase inhibitory potential, fold higher than the standard drug acarbose (α-glucosidase enzyme; from IC50 values versus acarbose) |
| --- | --- | --- | --- | --- | --- |
| 210 to 213 °C | 22 ± 0.04 µM | Cc1n(Cc2ccccc2)c2ccccc2[n+]1CC(=O)Nc1cccc(Cl)c1.[Br-] [Compound 10a, 1-Benzyl-3-[2-{(3-chlorophenyl)amino}-2-oxoethyl]-2-methyl-1H-benzo[d]imidazol-3-ium bromide] |  |  |  |
| 178 to 180 °C | 60 ± 0.041 µM | Cc1n(Cc2ccccc2)c2ccccc2[n+]1CC(=O)Nc1ccc(Cl)cc1.[Br-] [Compound 10b, 1-Benzyl-3-[2-{(4-chlorophenyl)amino}-2-oxoethyl]-2-methyl-1H-benzo[d]imidazol-3-ium bromide] |  |  |  |
| 244 to 246 °C | 25 ± 0.011 µM | COc1ccccc1NC(=O)C[n+]1c(C)n(Cc2ccccc2)c2ccccc21.[Br-] [Compound 10l, 1-Benzyl-3-[2-{(2-methoxyphenyl)amino}-2-oxoethyl]-2-methyl-1H-benzo[d]imidazol-3-ium bromide] |  |  |  |
| 235 to 238 °C | 16.16 ± 0.026 µM | COc1ccc(NC(=O)C[n+]2c(C)n(Cc3ccccc3)c3ccccc32)cc1.[Br-] [Compound 10m, 1-Benzyl-3-[2-{(4-methoxyphenyl)amino}-2-oxoethyl]-2-methyl-1H-benzo[d]imidazole-3-ium bromide] |  |  |  |
